pIC50: −log10 of the molar value. Active and inactive are the calls of the source. The calls are words filed in the database; no cut-off is given here.

Series [1] concerns MCF7. Briefly: Antiproliferative activity against human MCF7 cells assessed as reduction in cell viability after 72 hrs by Celltiter-Glo assay. Format: functional, cell-based. The note with it: MCF7, 72 h. A general note: In ATP-based viability assays light output follows the ATP content of the culture.
Series [2] has as its target T1, Estrogen receptor (Homo sapiens, UniProt P03372).
T1 sequence (P03372 whole entry): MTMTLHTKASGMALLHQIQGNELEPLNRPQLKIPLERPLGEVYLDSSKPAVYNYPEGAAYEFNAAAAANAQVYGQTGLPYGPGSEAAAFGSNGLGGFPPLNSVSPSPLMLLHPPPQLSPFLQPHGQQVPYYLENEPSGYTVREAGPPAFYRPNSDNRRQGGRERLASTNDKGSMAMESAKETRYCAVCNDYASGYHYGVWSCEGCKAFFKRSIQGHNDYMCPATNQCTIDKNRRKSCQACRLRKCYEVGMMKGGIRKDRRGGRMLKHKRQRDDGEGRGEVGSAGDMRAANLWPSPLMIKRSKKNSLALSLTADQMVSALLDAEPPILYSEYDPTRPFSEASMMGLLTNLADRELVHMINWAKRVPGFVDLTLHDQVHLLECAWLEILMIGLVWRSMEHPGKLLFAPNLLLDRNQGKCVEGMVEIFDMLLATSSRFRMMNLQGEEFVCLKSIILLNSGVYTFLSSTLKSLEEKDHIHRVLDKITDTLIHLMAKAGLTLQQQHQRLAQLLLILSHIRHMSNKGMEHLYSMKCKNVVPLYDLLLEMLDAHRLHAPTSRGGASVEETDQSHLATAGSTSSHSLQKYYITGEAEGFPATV
Briefly: Agonist activity at ERalpha in human Ishikawa cells after 72 hrs by alkaline phosphatase assay. Format: cell-based.

For another series, the system named is T47D. Description: Antiproliferative activity against human T47D cells assessed as reduction in cell viability. Format: functional, cell-based.
For series [3], the target named is T2, Estrogen receptor (Rattus norvegicus) (UniProt P06211).
T2 sequence (whole entry): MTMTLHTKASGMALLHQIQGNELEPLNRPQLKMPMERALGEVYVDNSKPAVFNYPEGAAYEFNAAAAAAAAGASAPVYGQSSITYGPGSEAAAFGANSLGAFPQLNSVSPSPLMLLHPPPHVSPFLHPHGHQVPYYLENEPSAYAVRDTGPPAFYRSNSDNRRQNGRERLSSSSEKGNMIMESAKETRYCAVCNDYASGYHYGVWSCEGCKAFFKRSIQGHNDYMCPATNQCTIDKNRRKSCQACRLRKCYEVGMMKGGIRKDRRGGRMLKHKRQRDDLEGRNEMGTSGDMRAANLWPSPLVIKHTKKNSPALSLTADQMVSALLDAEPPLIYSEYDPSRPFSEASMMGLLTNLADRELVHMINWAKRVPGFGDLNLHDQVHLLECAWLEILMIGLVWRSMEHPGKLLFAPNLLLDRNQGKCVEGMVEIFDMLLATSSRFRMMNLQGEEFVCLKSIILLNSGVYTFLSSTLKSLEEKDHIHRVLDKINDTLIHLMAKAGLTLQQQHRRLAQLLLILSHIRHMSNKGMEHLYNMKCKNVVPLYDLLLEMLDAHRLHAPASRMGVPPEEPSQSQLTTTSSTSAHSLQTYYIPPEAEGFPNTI
Description: In vivo antagonist activity at ERalpha in CRL:CD(SD) rat assessed as inhibition of estradiol-induced increase in uterine wet weight at 10 mg/kg, po administered as MCT suspension for 3 days and measured at 4 hrs post last dose on day 4. Format: functional, organism-based.

Series [4] in a line: Oral bioavailability in rat. The note with it: in vivo.
Series [5] is described as follows: Oral bioavailability in cynomolgus monkey. The note with it: in vivo.
Series [6] can be described thus: Clearance in cynomolgus monkey. Format: ADME, Macaca fascicularis. As to conditions: in vivo.
In series [7] the test system is MCF7. Description: Antitumor activity against human MCF7 cells harboring ER Y537S mutant xenografted in po dosed CRL:NU-Foxn1 mouse assessed as tumor regression administered qd for 21 days in presence of 17-beta estradiol pellets and measured twice per week by caliper method. Format: functional, organism-based. (Xenograft models place foreign cells or tissue in a host animal.)

A short description of series [8]: Clearance in rat. Format: ADME. The note with it: in vivo.
In series [9] the test system is MCF7. Description: Antitumor activity against human MCF7 cells harboring ER Y537S mutant xenografted in CRL:NU-Foxn1 mouse assessed as tumor regression at 1 to 30 mg/kg, po qd for 21 days in presence of 17-beta estradiol pellets and measured twice per week by caliper method. Format: functional, organism-based.
Series [10] is described as follows: Clearance in dog. Format: ADME, Canis lupus familiaris. The note with it: in vivo.
The test system of series [11] is MCF7. Briefly: Antitumor activity against human MCF7 cells expressing wild-type ER xenografted in po dosed CRL:NU-Foxn1 mouse administered qd for 28 days in presence of 17-beta-estradiol pellets and measured twice per week by caliper method. Format: functional, organism-based.
Series [12] can be described thus: Oral bioavailability in dog. As to conditions: in vivo.
The target in series [13] is T1, Estrogen receptor. Description: Induction of ERalpha degradation in human MCF7 cells after 4 hrs by FITC/Hoechst staining based immunofluorescence imaging analysis. Format: cell-based.

For the molecule `C[C@@H]1Cc2c([nH]c3ccccc23)[C@@H](c2c(F)cc(OCCN3CC[C@@H](CF)C3)cc2F)N1CC(C)(C)F`, in the series with MCF7 [1], the pIC50 was 8.82.

For the molecule `C[C@@H]1Cc2c([nH]c3ccccc23)[C@@H](c2c(F)cc(OC3CN(CCCF)C3)cc2F)N1CC(C)(C)F`, the results for the Activity result on Estrogen receptor [2], in the series with MCF7 [7] and with MCF7 [11] were “Not Active”, “Dose-dependent effect” and “Dose-dependent effect”, respectively. The pIC50 in the series with T47D is 9.16; in the series with MCF7 [1] it was 9.18. For the same molecule, the inhibition result in series [3] was “Active”. Also, the bioavailability in series [4] was found to be 31%; in series [5] it was 28%; in [12], 49%. Moreover, the clearance in [6] came out at 13 mL/min/kg; in [8] it was 19 mL/min/kg; in series [10], 8 mL/min/kg. For the same molecule, the outcome in the series with MCF7 [9] was Active.

With `C[C@@H]1Cc2c([nH]c3ccccc23)[C@@H](c2c(F)cc(OCCN3CC(F)(CF)C3)cc2F)N1CC(C)(C)F`, the pIC50 is 9.42 on Estrogen receptor [13] and 8.57 in the series with MCF7 [1].

For the molecule `C[C@@H]1Cc2c([nH]c3ccccc23)[C@@H](c2c(F)cc(OC3CN(CCCCl)C3)cc2F)N1CC(C)(C)F`, the pIC50 in the series on MCF7 [1] was 8.52.

Take `C[C@@H]1Cc2c([nH]c3ccccc23)[C@@H](c2c(F)cc(OC3CN(C[C@H]4C[C@@H]4F)C3)cc2F)N1CC(C)(C)F`: the pIC50 against Estrogen receptor [13] was 9.26; in the series with MCF7 [1], 8.19.

As for `C[C@@H]1Cc2c([nH]c3ccccc23)[C@@H](c2c(F)cc(OC3CN(CCF)C3)cc2F)N1CC(C)(C)F`, the pIC50 against Estrogen receptor [13] was 9.74; with MCF7 [1], 8.89.

As to `C[C@@H]1Cc2c([nH]c3ccccc23)[C@@H](c2c(F)cc(OCCN3CC(CF)C3)cc2F)N1CC(C)(C)F`, the pIC50 in the series with MCF7 [1] was 8.80.

Regarding `CC1CN(CCOc2cc(F)c([C@@H]3c4[nH]c5ccccc5c4C[C@@H](C)N3CC(C)(C)F)c(F)c2)C1`, the pIC50 is 9.72 on Estrogen receptor [13] and 9.05 in the series with MCF7 [1].

As to `CC/C(=C(/c1ccc(/C=C/C(=O)O)cc1)c1ccc2[nH]ncc2c1)c1ccc(F)cc1Cl` [BRILANESTRANT], the pIC50 was 7.57 with T47D and 7.36 in the series with MCF7 [1].

Regarding `C[C@@H]1Cc2c([nH]c3ccccc23)[C@@H](c2c(F)cc(OC3CN(C[C@H]4C[C@H]4F)C3)cc2F)N1CC(C)(C)F`, the pIC50 is 9.25 at Estrogen receptor [13] and 8.74 in the series with MCF7 [1].

For `C[C@@H]1Cc2c([nH]c3ccccc23)[C@@H](c2c(F)cc(OCCN3CC(C(F)F)C3)cc2F)N1CC(C)(C)F`, in the series on MCF7 [1], the pIC50 is 8.64.

For `C#CCN1CC(Oc2cc(F)c([C@@H]3c4[nH]c5ccccc5c4C[C@@H](C)N3CC(C)(C)F)c(F)c2)C1`, the pIC50 against Estrogen receptor [13] was 10.08; in the series on MCF7 [1] it was 9.09.

As for `C=CCN1CC(Oc2cc(F)c([C@@H]3c4[nH]c5ccccc5c4C[C@@H](C)N3CC(C)(C)F)c(F)c2)C1`, the pIC50 on Estrogen receptor [13] was 9.82; in the series with MCF7 [1], 9.08.

For `C[C@@H]1Cc2c([nH]c3ccccc23)[C@@H](c2c(F)cc(OC3CN(CC4(CF)CC4)C3)cc2F)N1CC(C)(C)F`, the pIC50 against Estrogen receptor [13] was 9.28; with MCF7 [1], 8.25.

`CCCN1CC(Oc2cc(F)c([C@@H]3c4[nH]c5ccccc5c4C[C@@H](C)N3CC(C)(C)F)c(F)c2)C1`: in the series on MCF7 [1], the pIC50 is 8.82.

Turning to `C[C@@H]1Cc2c([nH]c3ccccc23)[C@@H](c2c(F)cc(OC3CN(CCCCF)C3)cc2F)N1CC(C)(C)F`, the values for the pIC50 on Estrogen receptor [13] and in the series with MCF7 [1] were 9.41 and 8.07, respectively.

With `C[C@]12CC[C@@H]3c4ccc(O)cc4C[C@@H](CCCCCCCCC[S+]([O-])CCCC(F)(F)C(F)(F)F)[C@H]3[C@@H]1CC[C@@H]2O` (stereo not given in full) [FULVESTRANT], the Activity entry on Estrogen receptor [2] is listed as “Not Active”. Also, the pIC50 in the series on T47D was 8.52; in the series on MCF7 [1] it was 8.59.

Take `CC1=C(c2cccc(O)c2)[C@H](c2ccc(OCCN3CC(CF)C3)cc2)Oc2ccc(O)cc21`: the Activity entry at Estrogen receptor [2] is listed as “Not Active”. Besides, the pIC50 with T47D is 9.54; in the series with MCF7 [1] it was 9.52. In addition, the figures for the bioavailability in [5] and in series [12] were 5% and 23%, respectively. Moreover, the clearance was 17 mL/min/kg in series [6], 81 mL/min/kg in series [8] and 24 mL/min/kg in [10].

For the molecule `C[C@@H]1Cc2c([nH]c3ccccc23)[C@@H](c2c(F)cc(OC[C@H](C)N3CC[C@@H](CF)C3)cc2F)N1CC(C)(C)F`, the pIC50 in the series with MCF7 [1] is 8.77.

What is called pIC50 is −log10 of the IC50, conventionally taken in molar units. What is called bioavailability is the share of a dose that reaches the circulation, judged against a reference dose that is usually intravenous. In general, clearance refers to a measure of how efficiently the substance is removed, as volume per time.

The values are drawn from ChEMBL document CHEMBL4616717, “Discovery of GNE-149 as a Full Antagonist and Efficient Degrader of Estrogen Receptor alpha for ER+ Breast Cancer” (ACS Med Chem Lett, 2020).
